The kinase profiling compilation of Christmann-Franck et al. (2016)

Assays:
Assay in all cases: KINOMEscan competition binding
Settings in all cases: compound 1.0 µM
ADCK4 (human) = ADCK4 (human) (UniProt Q96D53)
BMPR1A (human) = BMPR1A (human) (UniProt P36894)
CDKL5 (human) = CDKL5 (human) (UniProt O76039)
CHEK1 (human) = CHEK1 (human) (UniProt O14757)
CLK3 (human) = CLK3 (human) (UniProt P49761)
CSF1R (human) = CSF1R (human) (UniProt P07333)
CSNK2A2 (human) = CSNK2A2 (human) (UniProt P19784)
DAPK1 (human) = DAPK1 (human) (UniProt P53355)
[1] = test system: EGFR (human), P00533 [G719C]
KIT (human) = KIT (human) (UniProt P10721)
Chain of KIT (human) (P10721 whole entry, looked up): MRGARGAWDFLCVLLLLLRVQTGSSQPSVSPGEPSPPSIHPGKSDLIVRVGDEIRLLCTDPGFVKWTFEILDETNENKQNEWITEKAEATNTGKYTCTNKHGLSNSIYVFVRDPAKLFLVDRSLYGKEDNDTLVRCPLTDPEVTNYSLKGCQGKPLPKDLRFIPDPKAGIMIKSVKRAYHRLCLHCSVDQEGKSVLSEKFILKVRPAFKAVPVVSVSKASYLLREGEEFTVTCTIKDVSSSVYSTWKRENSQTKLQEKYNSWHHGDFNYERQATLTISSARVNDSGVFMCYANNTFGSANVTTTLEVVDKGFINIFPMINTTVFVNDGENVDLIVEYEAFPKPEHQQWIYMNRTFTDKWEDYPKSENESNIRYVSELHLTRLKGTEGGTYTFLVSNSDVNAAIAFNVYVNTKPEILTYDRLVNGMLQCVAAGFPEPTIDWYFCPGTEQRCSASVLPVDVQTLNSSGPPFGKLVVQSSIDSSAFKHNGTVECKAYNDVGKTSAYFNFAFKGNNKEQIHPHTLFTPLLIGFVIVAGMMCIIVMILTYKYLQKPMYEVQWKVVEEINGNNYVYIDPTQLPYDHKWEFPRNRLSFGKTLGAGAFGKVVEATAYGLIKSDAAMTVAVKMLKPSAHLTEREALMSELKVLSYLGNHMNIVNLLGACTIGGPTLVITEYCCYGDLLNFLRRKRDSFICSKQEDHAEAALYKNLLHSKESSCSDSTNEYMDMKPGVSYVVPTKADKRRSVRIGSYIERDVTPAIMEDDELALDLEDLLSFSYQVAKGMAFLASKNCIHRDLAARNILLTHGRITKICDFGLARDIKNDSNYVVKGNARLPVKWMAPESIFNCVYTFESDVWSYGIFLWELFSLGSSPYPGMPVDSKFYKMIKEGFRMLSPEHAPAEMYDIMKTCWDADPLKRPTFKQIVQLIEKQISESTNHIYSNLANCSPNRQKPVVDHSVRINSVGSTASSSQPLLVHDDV

[2] = test system: KIT (human), P10721 [V559D]
Chain of KIT (human), P10721 [V559D] (P10721 whole entry V559D, looked up): as the sequence (P10721 whole entry, looked up) above, with V559D counted along it

LYN (human) = LYN (human) (UniProt P07948)
MAP3K13 (human) = MAP3K13 (human) (UniProt O43283)
MAP3K3 (human) = MAP3K3 (human) (UniProt Q99759)
MAP3K4 (human) = MAP3K4 (human) (UniProt Q9Y6R4)
MAP3K6 (human) = MAP3K6 (human) (UniProt O95382)
MAPK10 (human) = MAPK10 (human) (UniProt P53779)
MAPK13 (human) = MAPK13 (human) (UniProt O15264)
MARK4 (human) = MARK4 (human) (UniProt Q96L34)
MAST1 (human) = MAST1 (human) (UniProt Q9Y2H9)
Chain of MAST1 (human) (Q9Y2H9 whole entry, looked up): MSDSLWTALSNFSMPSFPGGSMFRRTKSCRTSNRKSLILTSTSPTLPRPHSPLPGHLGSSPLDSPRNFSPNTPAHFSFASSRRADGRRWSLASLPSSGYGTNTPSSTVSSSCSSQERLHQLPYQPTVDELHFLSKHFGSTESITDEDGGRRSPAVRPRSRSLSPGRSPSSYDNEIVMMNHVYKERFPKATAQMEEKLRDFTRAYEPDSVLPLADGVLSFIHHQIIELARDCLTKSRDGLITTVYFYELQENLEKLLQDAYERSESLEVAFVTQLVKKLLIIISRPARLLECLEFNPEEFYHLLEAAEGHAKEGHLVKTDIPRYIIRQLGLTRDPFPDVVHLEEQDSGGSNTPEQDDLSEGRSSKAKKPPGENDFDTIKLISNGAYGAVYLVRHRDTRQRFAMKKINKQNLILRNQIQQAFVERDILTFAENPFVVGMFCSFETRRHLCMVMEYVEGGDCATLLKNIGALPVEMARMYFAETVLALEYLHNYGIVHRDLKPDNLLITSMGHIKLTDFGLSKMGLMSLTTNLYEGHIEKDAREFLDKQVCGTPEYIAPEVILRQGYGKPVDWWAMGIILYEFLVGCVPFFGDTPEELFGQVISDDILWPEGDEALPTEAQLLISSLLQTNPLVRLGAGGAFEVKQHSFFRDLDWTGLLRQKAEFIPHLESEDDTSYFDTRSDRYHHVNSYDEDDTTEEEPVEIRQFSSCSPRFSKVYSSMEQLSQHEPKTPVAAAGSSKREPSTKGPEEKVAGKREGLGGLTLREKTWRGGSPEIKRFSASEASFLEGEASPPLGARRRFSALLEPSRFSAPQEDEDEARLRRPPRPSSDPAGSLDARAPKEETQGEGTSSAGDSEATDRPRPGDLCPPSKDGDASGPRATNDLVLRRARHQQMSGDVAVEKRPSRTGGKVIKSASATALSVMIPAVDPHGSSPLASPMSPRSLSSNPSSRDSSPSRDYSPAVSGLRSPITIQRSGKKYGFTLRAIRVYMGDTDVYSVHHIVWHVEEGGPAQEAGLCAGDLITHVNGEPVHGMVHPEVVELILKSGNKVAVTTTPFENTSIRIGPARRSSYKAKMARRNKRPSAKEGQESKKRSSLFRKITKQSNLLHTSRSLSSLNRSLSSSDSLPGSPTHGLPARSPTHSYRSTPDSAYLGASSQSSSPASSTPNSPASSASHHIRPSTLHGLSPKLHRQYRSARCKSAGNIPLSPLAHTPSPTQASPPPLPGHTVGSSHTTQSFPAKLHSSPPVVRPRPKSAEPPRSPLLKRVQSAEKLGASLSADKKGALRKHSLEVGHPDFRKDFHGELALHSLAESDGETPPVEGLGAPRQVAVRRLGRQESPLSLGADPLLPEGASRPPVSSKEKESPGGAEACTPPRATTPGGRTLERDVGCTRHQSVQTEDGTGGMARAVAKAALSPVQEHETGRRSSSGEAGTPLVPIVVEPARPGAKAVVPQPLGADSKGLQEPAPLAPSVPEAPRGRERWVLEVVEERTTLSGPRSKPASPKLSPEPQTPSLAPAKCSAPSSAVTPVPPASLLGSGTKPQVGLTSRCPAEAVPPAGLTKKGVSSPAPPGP

MET (human) = MET (human) (UniProt P08581)
[3] = test system: MET (human), P08581 [M1250T]
MKNK2 (human) = MKNK2 (human) (UniProt Q9HBH9)
MYLK (human) = MYLK (human) (UniProt Q15746)
NEK2 (human) = NEK2 (human) (UniProt P51955)
PIM3 (human) = PIM3 (human) (UniProt Q86V86)
PRKCH (human) = PRKCH (human) (UniProt P24723)
PRKG1 (human) = PRKG1 (human) (UniProt Q13976)
RIPK4 (human) = RIPK4 (human) (UniProt P57078)
SBK1 (human) = SBK1 (human) (UniProt Q52WX2)
SRC (human) = SRC (human) (UniProt P12931)
SRPK1 (human) = SRPK1 (human) (UniProt Q96SB4)
Chain of SRPK1 (human) (Q96SB4 whole entry, looked up): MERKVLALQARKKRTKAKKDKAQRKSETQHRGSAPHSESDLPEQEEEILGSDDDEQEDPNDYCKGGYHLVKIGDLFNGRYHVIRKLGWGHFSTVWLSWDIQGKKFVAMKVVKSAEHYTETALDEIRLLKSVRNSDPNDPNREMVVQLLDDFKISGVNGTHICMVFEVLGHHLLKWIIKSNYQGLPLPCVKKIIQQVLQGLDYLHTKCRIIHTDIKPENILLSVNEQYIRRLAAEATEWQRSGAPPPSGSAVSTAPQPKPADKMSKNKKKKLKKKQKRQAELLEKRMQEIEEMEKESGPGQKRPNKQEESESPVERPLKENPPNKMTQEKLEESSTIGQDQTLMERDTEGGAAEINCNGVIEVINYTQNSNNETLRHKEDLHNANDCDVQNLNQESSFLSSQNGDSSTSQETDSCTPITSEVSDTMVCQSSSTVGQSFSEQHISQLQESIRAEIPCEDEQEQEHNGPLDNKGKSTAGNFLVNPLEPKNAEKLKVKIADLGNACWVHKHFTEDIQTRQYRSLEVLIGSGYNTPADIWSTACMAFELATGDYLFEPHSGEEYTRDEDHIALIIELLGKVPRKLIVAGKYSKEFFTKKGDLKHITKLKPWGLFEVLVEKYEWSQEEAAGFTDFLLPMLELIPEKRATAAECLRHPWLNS

STK11 (human) = STK11 (human) (UniProt Q15831)
STK24 (human) = STK24 (human) (UniProt Q9Y6E0)
Chain of STK24 (human) (Q9Y6E0 whole entry, looked up): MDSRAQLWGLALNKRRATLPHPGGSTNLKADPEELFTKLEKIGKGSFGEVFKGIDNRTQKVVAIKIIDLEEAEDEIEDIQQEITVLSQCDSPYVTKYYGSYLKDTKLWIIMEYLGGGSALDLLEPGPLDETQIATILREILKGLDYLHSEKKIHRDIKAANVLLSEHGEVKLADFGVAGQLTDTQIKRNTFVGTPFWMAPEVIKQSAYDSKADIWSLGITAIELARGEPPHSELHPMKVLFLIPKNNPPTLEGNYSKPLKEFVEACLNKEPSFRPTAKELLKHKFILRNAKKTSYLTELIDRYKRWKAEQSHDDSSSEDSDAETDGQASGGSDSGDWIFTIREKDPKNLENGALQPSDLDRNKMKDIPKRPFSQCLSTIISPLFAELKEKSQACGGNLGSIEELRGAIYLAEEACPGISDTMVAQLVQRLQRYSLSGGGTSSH

TEC (human) = TEC (human) (UniProt P42680)
TLK2 (human) = TLK2 (human) (UniProt Q86UE8)
Chain of TLK2 (human) (Q86UE8 whole entry, looked up): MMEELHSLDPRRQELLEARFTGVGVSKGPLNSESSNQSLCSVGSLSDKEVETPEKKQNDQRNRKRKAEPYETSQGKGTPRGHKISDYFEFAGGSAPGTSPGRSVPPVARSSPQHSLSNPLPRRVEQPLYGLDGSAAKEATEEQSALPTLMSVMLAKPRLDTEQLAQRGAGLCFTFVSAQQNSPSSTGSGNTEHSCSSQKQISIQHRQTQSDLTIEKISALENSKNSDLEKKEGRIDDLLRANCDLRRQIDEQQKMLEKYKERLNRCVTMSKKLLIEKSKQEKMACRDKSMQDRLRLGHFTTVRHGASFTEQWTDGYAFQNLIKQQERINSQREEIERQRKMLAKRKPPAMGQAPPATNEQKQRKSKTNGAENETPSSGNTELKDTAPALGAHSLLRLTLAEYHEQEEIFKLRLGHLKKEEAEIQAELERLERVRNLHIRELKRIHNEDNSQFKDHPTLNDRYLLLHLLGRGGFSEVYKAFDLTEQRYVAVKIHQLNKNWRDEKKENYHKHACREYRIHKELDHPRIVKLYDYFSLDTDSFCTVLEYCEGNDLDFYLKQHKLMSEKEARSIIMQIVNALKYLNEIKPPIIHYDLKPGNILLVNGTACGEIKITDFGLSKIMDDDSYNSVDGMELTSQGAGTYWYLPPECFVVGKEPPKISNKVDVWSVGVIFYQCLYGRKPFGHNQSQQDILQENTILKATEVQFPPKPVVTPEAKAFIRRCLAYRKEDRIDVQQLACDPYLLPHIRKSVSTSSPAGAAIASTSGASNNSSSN

[4] = target: TYK2 JH2 pseudokinase (human) (UniProt P29597)
TYRO3 (human) = TYRO3 (human) (UniProt Q06418)
YSK4 (human) = YSK4 (human) (UniProt Q56UN5)
ZAP70 (human) = ZAP70 (human) (UniProt P43403)
Chain of ZAP70 (human) (P43403 whole entry, looked up): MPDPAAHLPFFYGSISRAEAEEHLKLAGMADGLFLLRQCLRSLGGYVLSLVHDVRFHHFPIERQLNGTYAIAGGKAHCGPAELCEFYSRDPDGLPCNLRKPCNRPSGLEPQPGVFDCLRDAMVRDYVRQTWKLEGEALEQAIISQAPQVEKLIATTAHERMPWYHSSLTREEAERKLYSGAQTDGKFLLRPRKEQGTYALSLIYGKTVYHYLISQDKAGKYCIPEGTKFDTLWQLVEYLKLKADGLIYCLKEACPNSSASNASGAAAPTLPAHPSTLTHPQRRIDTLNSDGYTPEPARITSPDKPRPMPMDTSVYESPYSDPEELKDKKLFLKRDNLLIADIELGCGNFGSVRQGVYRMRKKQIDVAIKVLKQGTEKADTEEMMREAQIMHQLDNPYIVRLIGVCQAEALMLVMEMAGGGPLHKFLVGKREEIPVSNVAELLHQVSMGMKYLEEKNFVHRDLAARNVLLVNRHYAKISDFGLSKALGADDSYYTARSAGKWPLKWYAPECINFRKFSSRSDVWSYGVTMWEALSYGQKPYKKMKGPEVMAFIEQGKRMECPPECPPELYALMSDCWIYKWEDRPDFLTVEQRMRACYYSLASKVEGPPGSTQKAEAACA

Work on `Nc1cc(C(F)(F)F)c(-c2cc(N3CCOCC3)nc(N3CCOCC3)n2)cn1` yielded an inhibition of binding (ADCK4 (human)) of 0%, an inhibition of binding (BMPR1A (human)) of 0% and an inhibition of binding (CDKL5 (human)) of 50%. It also gave an inhibition of binding (CHEK1 (human)) of 1%, an inhibition of binding (CLK3 (human)) of 29% and an inhibition of binding (CSF1R (human)) of 0%. It also gave an inhibition of binding (CSNK2A2 (human)) of 2%, an inhibition of binding (DAPK1 (human)) of 2% and an inhibition of binding [1] of 4%. It also gave an inhibition of binding (KIT (human)) of 0%, an inhibition of binding [2] of 0% and an inhibition of binding (LYN (human)) of 0%. It also gave an inhibition of binding (MAP3K13 (human)) of 0%, an inhibition of binding (MAP3K3 (human)) of 0% and an inhibition of binding (MAP3K4 (human)) of 1%. The inhibition of binding (MAP3K6 (human)) was 0%, the inhibition of binding (MAPK10 (human)) was 17% and the inhibition of binding (MAPK13 (human)) was 0%. It also gave an inhibition of binding (MARK4 (human)) of 0%, an inhibition of binding (MAST1 (human)) of 0% and an inhibition of binding (MET (human)) of 12%. For the same molecule, the inhibition of binding [3] was 20%, the inhibition of binding (MKNK2 (human)) was 5% and the inhibition of binding (MYLK (human)) was 12%. For the same molecule, the inhibition of binding (NEK2 (human)) was 0%, the inhibition of binding (PIM3 (human)) was 5% and the inhibition of binding (PRKCH (human)) was 0%. The inhibition of binding (PRKG1 (human)) was 0%, the inhibition of binding (RIPK4 (human)) was 0% and the inhibition of binding (SBK1 (human)) was 17%. It also gave an inhibition of binding (SRC (human)) of 6%, an inhibition of binding (SRPK1 (human)) of 0% and an inhibition of binding (STK11 (human)) of 0%. The inhibition of binding (STK24 (human)) was 5%, the inhibition of binding (TEC (human)) was 3% and the inhibition of binding (TLK2 (human)) was 13%. It also gave an inhibition of binding [4] of 12%, an inhibition of binding (TYRO3 (human)) of 0% and an inhibition of binding (YSK4 (human)) of 21%. The inhibition of binding (ZAP70 (human)) was 4%.
